In BindingDB's records for patent US11013745 (Shanghai Institute of Material Medica, Chinese Academy of …, 2021) one finds IC50 data, which are given here for two compounds.

Molecules are shown by their SMILES.

The target in the assay is T1, Histone-binding protein RBBP4/Histone-lysine N-methyltransferase EZH2/Polycomb protein EED [40-441]/Polycomb protein SUZ12 (Homo sapiens, UniProt O75530+Q09028+Q15022+Q15910).
T1 construct: 40-441
In words: TR-FRET Assay. Here is the method: The TR-FRET method was used to measure the PRC2 enzyme activity. First, the enzyme was mixed with compounds at different concentrations and incubated for 30 min at room temperature. The biotin-labeled histone H3 peptide substrate and the cofactor S-adenosylmethionine (SAM) were added to initiate the enzymatic reaction. After reaction was performed at room temperature for 4 hour, Acceptor and Donor were added and incubated for half an hour. The multifunctional microplate reader EnVision (Perkin Elmer Inc.) was used to detect the fluorescence signal.
(In general: TR-FRET usually uses a lanthanide donor and a delayed reading to cut background.)

T1 sequence (Q15910 whole entry): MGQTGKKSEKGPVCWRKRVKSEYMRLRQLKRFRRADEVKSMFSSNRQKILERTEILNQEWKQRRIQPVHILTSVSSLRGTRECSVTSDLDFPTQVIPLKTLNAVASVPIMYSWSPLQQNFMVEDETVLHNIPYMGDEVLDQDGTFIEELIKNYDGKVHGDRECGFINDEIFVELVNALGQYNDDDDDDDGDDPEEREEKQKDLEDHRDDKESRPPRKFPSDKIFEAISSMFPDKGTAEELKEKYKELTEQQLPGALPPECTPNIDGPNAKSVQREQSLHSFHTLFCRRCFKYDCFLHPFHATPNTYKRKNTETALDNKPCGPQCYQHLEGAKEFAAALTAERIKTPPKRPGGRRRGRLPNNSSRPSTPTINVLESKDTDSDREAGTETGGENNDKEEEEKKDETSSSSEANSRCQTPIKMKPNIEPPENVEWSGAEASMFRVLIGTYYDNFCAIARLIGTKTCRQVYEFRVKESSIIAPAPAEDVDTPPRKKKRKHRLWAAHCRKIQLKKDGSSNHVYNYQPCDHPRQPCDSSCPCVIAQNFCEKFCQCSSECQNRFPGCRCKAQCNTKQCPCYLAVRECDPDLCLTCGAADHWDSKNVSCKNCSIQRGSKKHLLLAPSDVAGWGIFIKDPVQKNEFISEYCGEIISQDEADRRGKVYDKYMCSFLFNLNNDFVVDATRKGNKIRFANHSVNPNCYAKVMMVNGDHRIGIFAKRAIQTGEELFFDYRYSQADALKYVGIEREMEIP
T1 sequence (Q15022 whole entry): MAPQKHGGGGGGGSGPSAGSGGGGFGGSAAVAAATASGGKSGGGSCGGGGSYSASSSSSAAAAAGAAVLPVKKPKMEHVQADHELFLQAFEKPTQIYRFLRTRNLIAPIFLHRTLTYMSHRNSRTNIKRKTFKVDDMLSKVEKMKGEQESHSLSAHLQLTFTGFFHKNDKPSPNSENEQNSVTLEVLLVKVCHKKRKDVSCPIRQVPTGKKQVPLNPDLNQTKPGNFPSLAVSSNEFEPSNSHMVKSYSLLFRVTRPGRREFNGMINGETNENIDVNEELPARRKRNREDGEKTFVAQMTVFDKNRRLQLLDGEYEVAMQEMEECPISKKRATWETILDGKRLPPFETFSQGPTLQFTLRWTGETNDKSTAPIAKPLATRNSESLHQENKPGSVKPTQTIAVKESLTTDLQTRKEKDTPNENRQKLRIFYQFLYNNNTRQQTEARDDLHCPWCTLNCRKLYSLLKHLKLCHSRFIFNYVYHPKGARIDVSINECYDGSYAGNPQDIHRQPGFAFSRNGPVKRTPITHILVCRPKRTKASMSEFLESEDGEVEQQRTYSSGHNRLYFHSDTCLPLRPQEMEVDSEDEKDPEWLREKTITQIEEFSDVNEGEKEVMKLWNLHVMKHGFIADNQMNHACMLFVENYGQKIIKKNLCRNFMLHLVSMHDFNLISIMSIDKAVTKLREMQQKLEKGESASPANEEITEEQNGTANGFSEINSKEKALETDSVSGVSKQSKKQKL
T1 sequence (Q09028 whole entry): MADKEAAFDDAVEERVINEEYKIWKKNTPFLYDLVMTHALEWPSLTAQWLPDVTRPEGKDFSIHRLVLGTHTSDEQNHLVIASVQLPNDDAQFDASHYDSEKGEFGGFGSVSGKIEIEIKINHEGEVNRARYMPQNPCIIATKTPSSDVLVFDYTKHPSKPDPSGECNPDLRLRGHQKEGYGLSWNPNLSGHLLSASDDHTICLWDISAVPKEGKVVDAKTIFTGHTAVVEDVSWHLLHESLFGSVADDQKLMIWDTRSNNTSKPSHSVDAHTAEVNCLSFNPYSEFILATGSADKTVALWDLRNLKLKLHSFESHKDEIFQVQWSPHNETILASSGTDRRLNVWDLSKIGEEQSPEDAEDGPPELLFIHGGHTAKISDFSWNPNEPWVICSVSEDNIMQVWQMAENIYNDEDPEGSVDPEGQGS
T1 sequence (O75530 40-441): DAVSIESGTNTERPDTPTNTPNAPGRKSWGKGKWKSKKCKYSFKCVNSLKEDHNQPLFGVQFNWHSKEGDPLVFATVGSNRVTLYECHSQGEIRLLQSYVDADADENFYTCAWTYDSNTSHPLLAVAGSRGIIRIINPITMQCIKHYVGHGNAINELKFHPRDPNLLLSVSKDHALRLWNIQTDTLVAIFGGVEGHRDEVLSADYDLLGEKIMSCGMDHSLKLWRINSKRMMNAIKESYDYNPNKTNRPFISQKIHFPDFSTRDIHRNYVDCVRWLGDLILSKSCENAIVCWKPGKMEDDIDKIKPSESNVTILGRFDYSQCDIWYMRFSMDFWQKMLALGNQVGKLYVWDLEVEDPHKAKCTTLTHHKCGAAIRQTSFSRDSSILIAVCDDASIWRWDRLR

The IC50 is the point on the concentration scale where inhibition reaches its midpoint. Read a high IC50 as weaker potency in that assay. Compound `O=C(Nc1ccc(Cl)cc1)N1CC=C(c2cnc(NCc3ccco3)n3cnnc23)CC1` [US11013745, Compound E-Y27] came in with a 50% inhibitory concentration (IC50) of 92 nM.
Turning to `O=C(Nc1ccc(Cl)cc1)N1CC=C(c2cnc(NCc3c(F)ccc4c3CCO4)n3cnnc23)CC1` [US11013745, Compound E-Y38], the half-inhibitory concentration (IC50) came to 58.5 nM.
